Results taken from patent US20010012854A1, “MULTICATALYTIC PROTEASE INHIBITORS FOR USE AS ANTI-TUMOR AGENTS” (priority 1997, published 2001).
One block for each molecule: values may come before it.

Tests used:
[1] = tested on: human leukemia HL-60 cells; experiment: Apoptosis in HL-60 cells (DNA fragmentation, PARP cleavage); format: cell-based
Protocol: (§1) d. Flow cytometry nuclear staining and DNA fragmentation assays. DNA content analysis using flow cytometry was performed as described previously (Nicoletti, I., et al. J. Immunol. Methods 139:271-279, 1992). To assay nuclear morphology, cells were washed with PBS, fixed with 70% ethanol for 1 h, and stained with Hoechst 33258 (1 mM) for 30 min. The nuclear morphology of cells was visualized by fluorescence microscope (OLYMPUS BH2). DNA fragmentation was assayed as described previously (Grant, S., et al. Cancer Res. 52:6270-6278, 1992).
(§2) e. Whole cell extracts and western blot assay. To prepare whole cell extracts, cells were washed with PBS, and homogenized in lysis buffer (50 mM Tris, pH 8.0, 5 mM EDTA, 150 mM NaCl, 0.5% Nonidet P-40, 0.5 mM PMSF and 0.5 mM dithiothreitol). Following 30 min rocking at 4° C., the lysates were centrifuged and the supernatants were collected as whole cell extracts. The protein samples were then analyzed by sodium dodecyl sulfate-6% polyacrylamide gel electrophoresis (20-60 μg protein per lane) followed by the enhanced chemiluminescence Western blot assay using specific antibodies to CPP32, PARP, p21, p27 or RB.
Example 1 was designed to determine if MCP is involved in the survival signaling pathway(s) and if inhibition of MCP activity induces apoptosis. Human Jurkat T cells were treated with 30 μM Compound A for 4 h. […]

[2] = tested on: Jurkat Human T Cell Leukemia Line; experiment: Jurkat cell viability assay (XTT reduction); format: cell-based; details: Jurkat cells, 24 hours, viability by XTT reduction, read-out: Toxicity (IC50)
Protocol: f. Cell viability assay. Jurkat cells were treated with MCP inhibitors or vehicle for 30 min. at 37° C. Next, ionomycin (1 μM) and the phorbol ester PMA (10 ng/ml) were added, together with 0.2% ethanol. After 24 h, cell viability was assessed by reduction of XTT (Sigma, X4251). To each well, 50 μl of XTT (1 mg/ml) and 25 μl PMS (Sigma 9625, 5 mM) were added. After 3 h at 37° C., the OD of each well was read at 450 nm/690 nm by a plate reader.
(§3) The rank-order potency for Jurkat cell killing precisely matched the order for MCP inhibition (Table 2, below).

human Jurkat T cells = experiment: Apoptosis in Jurkat T cells (flow cytometry sub-G1 DNA content, DNA fragmentation); format: cell-based; details: for Increase in the apoptotic population with sub-G1 DNA content: Jurkat T cells, 15 μM, 8 h
Protocol: (§4) c. Treatment of cells with MCP inhibitor. Cells were treated with a specified MCP Inhibitor, a standard anticancer agent (etoposide or cisplatin), or DMSO (vehicle). During this process, morphological changes and cellular detachment (for attached cell lines) were monitored. At each time point, cells were harvested, and used for measurement of apoptosis and other biochemical events. In Example 1, infra, involving YVAD-CMK, Compound A was first added to Jurkat T cells. This was followed immediately by dividing the cells into multiple tissue culture flasks. YVAD-CMK was then added to an indicated concentration.
as §1
(§5) Example 1 was designed to determine if MCP is involved in the survival signaling pathway(s) and if inhibition of MCP activity induces apoptosis. Human Jurkat T cells were treated with 30 μM Compound A for 4 h. […] Both the p112 and p115 forms of RB as p112-115/RB were combined and used as an apoptosis marker.
When human Jurkat T cells were treated with 15 μM Compound A for 8 h, there was a 23% increase in the apoptotic population with sub-G1 DNA content (FIG. 2, panels b vs. a). By comparison, when Compound B was used, only an 8%-increase in sub-G1 population was detected (FIG. 2, panels c vs. a).

[3] = tested on: PARP, RB and caspase-3 cleavage in Jurkat T cells; experiment: Western blot of caspase-3, PARP and RB in Jurkat T cells; format: cell-based, human; details: Jurkat T cells, 15 μM, time course up to 24 h
Protocol: as §2, §5
The ability of these three MCP inhibitors to induce changes in PARP and RB proteins in a parallel experiment was also investigated. […] This rank corresponded exactly to that of the three compounds for inhibition of the chymotrypsin-like activity in isolated proteasomes (Iqbal, M., et al. J. Med Chem. 38: 2276-2277, 1995; Iqbal, M., et al. Bioorg. Med. Chem. Lett. 6: 287-290, 1996) and in intact murine B cells (Harding, C. V., et al. J Immuno. 155: 1767-1775, 1995).

[4] = target: MCP chymotrypsin-like activity (Homo sapiens, UniProt P28074); experiment: Inhibition of MCP chymotrypsin-like activity; format: biochemical
Description: as §3
Inhibition of the chymotrypsin-like activity of MCP by the disclosed MCP inhibitors has been reported, but these MCP inhibitors produced relatively little inhibition on the MCP trypsin-like activity and cathepsin B, a vacuolar cysteine protease (Iqbal, M., et al. J. Med Chem. 38: 2276-2277, 1995; Iqbal, M., et al. Bioorg. Med. Chem. Lett. 6: 287-290, 1996; and Harding, C. V., et al. J. Immuno. 155: 1767-1775, 1995). Furthermore, the order of potency for inhibition of the chymotrypsin-like activity was reported to be Compound A>Compound B>Compound C by using both isolated MCP and intact murine B cells (Iqbal, M., et al. J. Med Chem. 38: 2276-2277, 1995; Iqbal, M., et al. Bioorg. Med. Chem. Lett. 6: 287-290, 1996; and Harding, C. V., et al. J. Immuno. 155: 1767-1775, 1995).

[5] = tested on: human breast cancer MDA-MB-231 cells; experiment: Detachment and apoptotic nuclear changes in MDA-MB-231 cells; format: cell-based; details: MDA-MB-231, 24 h
Protocol: as §4, §1
(§6) Detachment was also found in at least half of human breast cancer MDA-MB-231 and MCF-7 cells, after exposure to Compound A for 24 h.

[6] = tested on: Normal human fibroblast cell line (WI-38); experiment: Detachment, apoptotic nuclear changes and PARP cleavage in normal fibroblasts; format: cell-based; details: normal WI-38, 10 μM, up to 22 h
Protocol: as §4, §1, §2
(§7) Whether Compound A has, any selectivity in induction of apoptosis between transformed and normal cells was investigated. Normal human fibroblast cell line (WI-38) and its SV40-transformed derivative (WI-38 VA13) were utilized. […]

[7] = tested on: human prostate cancer DU145 cells; experiment: Detachment and apoptotic nuclear changes in DU145 cells; format: cell-based; details: DU145, 16 h
Protocol: as §4, §1
Similar to PC-3, about half of human prostate cancer DU145 cells became detached after exposure to Compound A for 16 h.

[8] = tested on: human breast cancer MCF-7 cells; experiment: Detachment and apoptotic nuclear changes in MCF-7 cells; format: cell-based; details: MCF-7, 24 h
Protocol: as §4, §1, §6

[9] = tested on: Human prostate cancer PC-3 cells; experiment: Detachment and apoptotic nuclear changes in PC-3 cells; format: cell-based; details: PC-3, 10 μM, 36 h
Protocol: as §4, §1
Human prostate cancer PC-3 cells were treated with 10 μM Compound A, etoposide, or an equal percentage of vehicle (DMSO), followed by separation of the attached and detached cell populations. Both attached and detached cell populations were then used for detection of apoptotic nuclear changes. After 36 h treatment with Compound A, ˜50% of PC-3 cells became detached.

[10] = tested on: p21 and p27 in human breast cancer MDA-MB-231 cells; experiment: Western blot of p21 and p27 levels in MDA-MB-231 cells; format: cell-based; details: MDA-MB-231, 17 hours, concentrations up to 100 μM
Protocol: as §2
Additionally, a band of 70 kDa whih may represent ubiquinated p70 was also observed. In contrast, etoposide caused only limited accumulation of p21 (≦4-fold) and p27 (≦2-fold) at 17 hours when used at concentrations up to 100 μM.

[11] = tested on: Bcl-2-overexpressing Jurkat cells; experiment: Apoptosis in Bcl-2-overexpressing Jurkat cells (nuclear staining, western blot); format: cell-based, human
Protocol: (§8) b. Cell culture. Human Jurkat T and HL-60 cells were grown in RPMI 1640 (Life Technologies, Inc.) supplemented with 10% fetal calf serum (Sigma), 100 units/ml of penicillin, 100 μg/ml of streptomycin and 2mM L-glutamine (growth medium). Jurkat T. cells overexpressing the Bcl-2 oncoprotein or vector alone (provided by Dr. D. Johnson, University of Pittsburgh, Pa.) were grown in the same growth medium with […] G418. Human cancer cell lines of breast (MCF-7, MDA-MB-231), prostate (DU145, PC3) and osteosarcoma (U2-OS), obtained from American Type Culture Collection (ATCC. Rockville, Md.)), were also grown in the RPMI growth medium. Human oral (SCC-25; from ATCC) and brain (SNB-19; Welch, W. C., et al. In Vitro Cell. Dev. Biol., 31:610-616, 1995) cancer cell lines, and normal (WI-38) and SV40-transformed human fibroblasts (WI-38 VA-13; from ATCC) were grown in DMEM medium containing 10% fetal calf serum, penicillin, streptomycin and L-glutamine.
as §1, §2
It has been shown that overexpression of Bcl-2 oncoprotein inhibits apoptosis in many cell systems (Miura, M., et al., J. Cell 75: 653-660, 1993). Bcl-2 expression in human Jurkat T cells for inhibition of Compound A-induced apoptosis was investigated.

[12] = tested on: Jurkat cells transfected with a control vector; experiment: Apoptotic nuclear changes (Hoechst staining) in Jurkat cells transfected with control vector; format: cell-based, human; details: 50 μM, 8 h
Protocol: as §8, §1
The apoptosis-inducing potency of Compound A was compared with two standard chemotherapeutic anti-cancer agents, etoposide and cisplatin. […] By comparison, treatment with 50 μM etoposide for 8 h induced only ˜47% of these cells to undergo apoptosis (FIG. 3, panels c vs. a). Treatment of 10 μM Compound A, but not etoposide or cisplatin, induced apoptosis in human prostate, breast, tongue and brain cancer cells and also in SV40 DNA virus-transformed human fibroblasts (see FIGS. 5-7).

[13] = tested on: SV40-transformed human fibroblasts (WI-38 VA13); experiment: Detachment, apoptotic nuclear changes and PARP cleavage in SV40-transformed fibroblasts; format: cell-based; details: WI-38 VA13, 10 μM, up to 22 h
Protocol: as §4, §1, §2, §7

IC50 [4]: 6 nM
Molecule: CC(C)C[C@@H](C=O)NC(=O)[C@@H](CCCNC(=N)N[N+](=O)[O-])NC(=O)C(CCCCCCCCC#N)C1CCCC1 (some centres unmarked) [Compound B]
Internucleosomal fragmentation of DNA [1]: induced internucleosomal fragmentation of DNA | IC50 [2]: 1.6 µM | Increase in the apoptotic population with sub-G1 DNA content (human Jurkat T cells): 8% | Production of p85/PARP and p112-115/RB [3]: much less p85/PARP and p 112-115/RB were found before 8 h

IC50 [4]: 21 nM
Molecule: CCNC(=O)C(=O)C(CC(C)C)NC(=O)C(CCCN/C(N)=N/[N+](=O)[O-])NC(=O)C(CCCCCCCCC#N)C1CCCC1 (centres unmarked) [Compound C]
IC50 [2]: 9.7 µM | Increase in the apoptotic population with sub-G1 DNA content (human Jurkat T cells): did not induce apoptosis | Production of p85/PARP and p112-115/RB [3]: only induced little p85/PARP and p112-115/RB after 24 h

Molecule: COC(=O)CCCCCCCCC(C(=O)N[C@@H](CCCNC(=N)NS(=O)(=O)c1ccc2c(c1)CCC(C)(C)O2)C(=O)NC(C=O)CC(C)C)C1CCCC1 (some centres unmarked) [F]
IC50 [2]: 1.7 µM

IC50 [4]: 10 nM
Molecule: COC(=O)CCCCCCCCC(C(=O)N[C@@H](CCCNC(=N)NS(=O)(=O)c1ccc2c(c1)CCC(C)(C)O2)C(=O)N[C@H](C=O)CC(C)C)C1CCCC1 (some centres unmarked) [F]

IC50 [4]: 20 nM
Molecule: Cc1c(C)c(S(=O)(=O)NC(=N)NCCC[C@H](NC(=O)C(CCCCCCCCC#N)C2CCCC2)C(=O)N[C@H](C=O)CC(C)C)c(C)c2c1OC(C)(C)CC2 (some centres unmarked) [G]
IC50 [2]: 5.7 µM

IC50 [4]: 300 nM
Molecule: CC(C)CC(C=NNC(N)=O)NC(=O)C(CCCNC(=N)N[N+](=O)[O-])NC(=O)C(CCCCCCCCC#N)C1CCCC1 (centres unmarked) [H]
IC50 [2]: > 30 µM

Molecule: COc1cc([C@@H]2c3cc4c(cc3[C@@H](O[C@@H]3O[C@@H]5CO[C@@H](C)O[C@H]5[C@H](O)[C@H]3O)[C@H]3COC(=O)[C@H]23)OCO4)cc(OC)c1O [etoposide, reference compound]
Apoptosis by nuclear staining [5]: did not induce apoptosis | Detachment and apoptotic nuclear changes [6]: did not induce apoptosis in either transformed or normal WI-38 cells | Detached cells [7]: very little detachment | Nuclear morphology [7]: the remaining attached cells still contained normal nuclei | Apoptosis by nuclear staining [8]: did not induce apoptosis | Detached cells [9]: Little or no detachment | Nuclear morphology (apoptotic condensation and fragmentation) [9]: all the remaining attached cells contained normal, round nuclei | Accumulation of p21 [10]: ≤ 4 fold | Accumulation of p27 [10]: ≤ 2 fold | Effect of Bcl-2 expression on induced PARP and RB changes ([11]; 50 μM): inhibited these PARP and RB changes | Effect of Bcl-2 expression on induced apoptotic nuclear changes ([11]; etoposide treatment as in FIG. 3 (50 μM, 8 h)): blocked the apoptotic nuclear changes induced by etoposide | Cells exhibiting apoptotic nuclear changes [12]: ~47% | Detachment and apoptotic nuclear changes [13]: did not induce apoptosis in either transformed or normal WI-38 cells

Molecule: Acetyl-YVAD-chloromethyl ketone [YVAD-CMK, reference compound]
Block of Compound A-induced apoptotic events (apoptotic peak, caspase-3 processing, PARP cleavage, RB dephosphorylation and cleavage) (human Jurkat T cells; added to Compound A-treated Jurkat T cells): completely blocked
